Data from patent US4407806A, “Fungicidal, herbicidal and plant growth regulating pyridyl-containing ethers” (Chevron Research Company, priority 1981, dated 1983).

How the values were obtained:
Format in all cases: in vivo
[1] = system: grape downy mildew organism Plasmopara viticola; experiment: Grape Downy Mildew control (detached grape leaves); details: vs untreated check, read-out: Fungicidal Activity Control %, Grape D.M.
[2] = system: Tomato Late Blight organism Phytophthora infestans; experiment: whole plant or invertebrate; details: 168 h, read-out: Fungicidal Activity Control %, Tomato L.B.
[3] = system: celery late blight organism Septoria apii; experiment: whole plant or invertebrate; details: 336 h, read-out: Fungicidal Activity Control %, Celery L.B.
[4] = system: tomato Early Blight organism, Alternaria solani conidia; experiment: Tomato Early Blight control; details: 288 h, about 12 days in greenhouse, vs untreated check, read-out: Fungicidal Activity Control %, Tomato E.B.
Protocol: Compounds of the invention were tested for the control of the tomato Early Blight organism, Alternaria solani conidia. Tomato (variety Bonny Best) seedlings of 6 to 7 weeks old were used. The tomato plants were sprayed with a 250 ppm solution of the test compound in an acetone-and-water solution containing a small amount of a nonionic emulsifier. The sprayed plants were inoculated one day later with the organism, placed in the environmental chamber and incubated at […] and 100% relative humidity for 24 hours. Following the incubation, the plants were maintained in a greenhouse for about 12 days. Percent diseases control was based on the percent disease development on untreated check plants.

[5] = system: Bean Powdery Mildew organism Erisiphe polygoni; experiment: Bean Powdery Mildew control; details: 240 h, 10 days, vs untreated check, read-out: Fungicidal Activity Control %, Bean P.M.
Protocol: The compounds of the invention were tested for the control of the Bean Powdery Mildew organism […] polygoni. Seedling bean plants were sprayed with a 250 ppm solution of the test compound in acetone, water and a nonionic emulsifier. The sprayed plants were then inoculated 1 day later with organism. […] The percent disease control provided by a given test compound was based on the percent disease reduction relative to the untreated check plants.

[6] = system: Crabgrass (Digitaria sanguinalis); experiment: Pre-emergent herbicidal test; details: 504 h, pre-emergence, 33 micrograms/cm^2, 3 weeks, 0-to-100 scale, read-out: Herbicidal Activity Pre-Emergence % Control, Crab Grass
Protocol: (§1) An acetone solution of the test compound was prepared by mixing 750 mg of the compound, 220 mg of a nonionic surfactant and 25 ml of acetone. This solution was added to approximately 125 ml of water containing 156 mg of surfactant.
(§2) Seeds of the test vegetation were planted in a pot of […] and the test solution was sprayed uniformly onto the soil surface at a dose of 33 micrograms/cm^2. The pot was watered and placed in a greenhouse. […] At the end of this period, the herbicidal effectiveness of the compound was rated based on the physiological observations. A 0-to-100 scale was used, 0 representing no phytotoxicity, 100 representing complete kill.

[7] = system: Lambsquarter (Chenopodium album); experiment: Pre-emergent herbicidal test; details: 504 h, pre-emergence, 33 micrograms/cm^2, 3 weeks, 0-to-100 scale, read-out: Herbicidal Activity Pre-Emergence % Control, L'Qtr.
Protocol: as §1, §2

[8] = system: Mustard (Brassica arvensis); experiment: Pre-emergent herbicidal test; details: 504 h, pre-emergence, 33 micrograms/cm^2, 3 weeks, 0-to-100 scale
Protocol: as §1, §2

[9] = system: Pigweed (Amaranthus retraflexus); experiment: Pre-emergent herbicidal test; details: 504 h, pre-emergence, 33 micrograms/cm^2, 3 weeks, 0-to-100 scale
Protocol: as §1, §2

Soybean [10] = experiment: Pre-emergent herbicidal test; details: Glycine max, 504 h; pre-emergence; 33 micrograms/cm^2; 3 weeks; 0-to-100 scale; read-out: Herbicidal Activity Pre-Emergence % Control, Soybean
Protocol: as §1, §2

[11] = system: Watergrass (Echinochloa crusgalli); experiment: Pre-emergent herbicidal test; details: Echinochloa crus-galli, 504 h; pre-emergence; 33 micrograms/cm^2; 3 weeks; 0-to-100 scale; read-out: Herbicidal Activity Pre-Emergence % Control, Water Grass
Protocol: as §1, §2

Wild Oats (Avena fatura) [12] = experiment: Pre-emergent herbicidal test; details: 504 h, pre-emergence, 33 micrograms/cm^2, 3 weeks, 0-to-100 scale
Protocol: as §1, §2

[13] = system: Crabgrass (Digitaria sanguinalis); experiment: Post-emergent herbicidal test; details: 504 h, post-emergence, 33 micrograms/cm^2, 3 weeks, 0-to-100 scale, read-out: Herbicidal Activity Post-Emergence % Control, Crab Grass
[14] = system: Lambsquarter (Chenopodium album); experiment: Post-emergent herbicidal test; details: 504 h, post-emergence, 33 micrograms/cm^2, 3 weeks, 0-to-100 scale, read-out: Herbicidal Activity Post-Emergence % Control, L'Qtr.
[15] = system: Mustard (Brassica arvensis); experiment: Post-emergent herbicidal test; details: 504 h, post-emergence, 33 micrograms/cm^2, 3 weeks, 0-to-100 scale
[16] = system: Pigweed (Amaranthus retraflexus); experiment: Post-emergent herbicidal test; details: 504 h, post-emergence, 33 micrograms/cm^2, 3 weeks, 0-to-100 scale
Soybean [17] = experiment: Post-emergent herbicidal test; details: Glycine max, 504 h, post-emergence, 33 micrograms/cm^2, 3 weeks, 0-to-100 scale, read-out: Herbicidal Activity Post-Emergence % Control, Soybean
[18] = system: Watergrass (Echinochloa crusgalli); experiment: Post-emergent herbicidal test; details: Echinochloa crus-galli, 504 h, post-emergence, 33 micrograms/cm^2, 3 weeks, 0-to-100 scale, read-out: Herbicidal Activity Post-Emergence % Control, Water Grass
Wild Oats (Avena fatura) [19] = experiment: Post-emergent herbicidal test; details: 504 h, post-emergence, 33 micrograms/cm^2, 3 weeks, 0-to-100 scale
Idaho pinto bean plants = experiment: Axillary Bud Growth Inhibition Of Pinto Bean Plants; details: 288 h; 625-ppm; twelve days after treatment; vs untreated check; read-out: Bud Inhib (percent inhibition of axillary bud growth)
Protocol: Compounds of this invention were tested to determine their plant-growth-retarding effects on axillary bud growth of pinto beans.
Idaho pinto bean plants (13-16 days old) having monofoliate leaves fully developed and first trifoliates beginning to unfold were used. All growth 5 mm above the monofoliate leaf node was removed with forceps 1 to 4 hours prior to treatment with the test compounds. Four plants were used for each test compound.
A 625-ppm solution of the test compound in a 2% aqueous acetone solution containing a small amount of a nonionic surfactant was sprayed onto the pinto bean plants until runoff. After drying, the treated plants were transferred to a greenhouse maintained at 20°-23° C. and watered at regular intervals. Twelve days after treatment, the bud growth at the axil of the monofoliate leaf was determined and expressed as percent inhibition of axillary bud growth as compared to untreated check plants.

Cotton plants = experiment: Cotton Regrowth; details: Gossypium hirsutum, 13 to 18 days, 100% is total inhibition, read-out: Regrowth (percent inhibition of cotton regrowth)
Protocol: Compounds of this invention were tested to determine their plant-growth regulating effects on cotton leaf regrowth.
Cotton plants, 4 to 5 weeks old, containing 4 true leaves above the cotyledonary leaves are employed. Growth beyond the second true leaf was removed. Within 24 hours the plants are sprayed with a 2000 ppm solution of the test compound. After spraying, the plants are transferred to a greenhouse maintained at 85° F. (±5° F.) and incubated there for from 13 to 18 days. The plants during this period are sub-irrigated in 1/4" of water.
After this period, regrowth is determined as a percent inhibition of auxiliary bud regrowth--100% is total inhibition while 0% is no inhibition.

Structure (SMILES) | pest or weed control at 250 ppm [1] [%] | pest or weed control at 250 ppm [2] [%] | pest or weed control at 250 ppm [3] [%] | pest or weed control at 250 ppm [4] [%] | pest or weed control at 250 ppm [5] [%] | pest or weed control at 33 µg/cm2 [6] [%] | pest or weed control at 33 µg/cm2 [7] [%] | pest or weed control at 33 µg/cm2 [8] [%] | pest or weed control at 33 µg/cm2 [9] [%] | plant injury at 33 µg/cm2 (Soybean [10]) [%] | pest or weed control at 33 µg/cm2 [11] [%] | pest or weed control at 33 µg/cm2 (Wild Oats (Avena fatura) [12]) [%] | pest or weed control at 5000 ppm, 33 µg/cm2 [13] [%] | pest or weed control at 5000 ppm, 33 µg/cm2 [14] [%] | pest or weed control at 5000 ppm, 33 µg/cm2 [15] [%] | pest or weed control at 5000 ppm, 33 µg/cm2 [16] [%] | plant injury at 5000 ppm, 33 µg/cm2 (Soybean [17]) [%] | pest or weed control at 5000 ppm, 33 µg/cm2 [18] [%] | pest or weed control at 5000 ppm, 33 µg/cm2 (Wild Oats (Avena fatura) [19]) [%] | pest or weed control at 625 µg/mL (Idaho pinto bean plants) [%] | further results
CC(C)(C)c1ccc(COC(c2cccnc2)c2ccc(Cl)cc2Cl)cc1 (stereo not drawn) [Compound 6, 3-pyridyl-2,4-dichlorophenylcarbinol 4-t-butylbenzylether] | 50 | 0 | 78 | 40 | 100 | 68 | 15 | 20 | 35 | 0 | 65 | 25 | 0 | 60 | 25 | 55 | 35 | 0 | 0 | 60 | inhibition at 2000 ppm (Cotton plants): 90%
c1ccc(COC(c2ccccc2)c2cccnc2)cc1 (stereo not drawn) [Compound 7] | 0 | 0 | 43 | 0 | 100 | 99 | 28 | 0 | 32 | 0 | 80 | 0 | 0 | 65 | 60 | 45 | 35 | 0 | 0 | 20 | inhibition at 2000 ppm (Cotton plants): 90%
FC(F)(F)c1cccc(COC(c2ccccc2)c2cccnc2)c1 (stereo not drawn) [Compound 8] | 0 | 0 | 38 | 25 | 100 | 0 | 0 | 0 | 0 | 0 | 0 | 0 | 0 | 40 | 50 | 50 | 25 | 0 | 0 | 60 | inhibition at 2000 ppm (Cotton plants): 65%
